Measurements as given in ChEMBL document CHEMBL1154545, “Optimization of a series of 4,6-bis-anilino-1H-pyrrolo[2,3-d]pyrimidine inhibitors of IGF-1R: elimination of an acid-mediated decomposition pathway” (Bioorg Med Chem Lett, 2009).

Legend:
[1] = Chemical stability assessed as half life in 0.1 N HCl by LC-MS; format: physicochemical
[2] = biological target: T1, Insulin-like growth factor 1 receptor (Homo sapiens, UniProt P08069)
[3] = biological target: T1, Insulin-like growth factor 1 receptor; remark: listed apart in the source
Description: Inhibition of IGF1R phosphorylation by cellular assay

[4] = biological target: ALK tyrosine kinase receptor (Homo sapiens, UniProt Q9UM73); assay: Inhibition of ALK
[5] = Clearance in rat at 2.1 mg/kg, iv or 9.2 mg/kg, po; format: ADME, organism-based; settings: in vivo
[6] = Bioavailability in rat at 9.2 mg/kg, po; format: ADME, organism-based; settings: in vivo
[7] = tested on: Rattus norvegicus; assay: Dose normalized AUC in rat at 9.2 mg/kg, po; format: ADME, organism-based; parameters: dose 9.2 mg/kg, route oral; settings: in vivo
[8] = biological target: Phosphatidylinositol 4,5-bisphosphate 3-kinase catalytic subunit alpha isoform (Homo sapiens, UniProt P42336); assay: Inhibition of PI3K
[9] = biological target: RAC-alpha serine/threonine-protein kinase (Homo sapiens, UniProt P31749); assay: Inhibition of AKT
[10] = Clearance in rat at 2.2 mg/kg, iv or 9.8 mg/kg, po; format: ADME, organism-based; settings: in vivo
[11] = Bioavailability in rat at 9.8 mg/kg, po; format: ADME, organism-based; settings: in vivo
[12] = tested on: Rattus norvegicus; assay: Dose normalized AUC in rat at 9.8 mg/kg, po; format: ADME, organism-based; parameters: dose 9.8 mg/kg, route oral; settings: in vivo

SMILES | half-life [1] | IC50 [2] | IC50 [3] | also measured
COc1cc(N2CCN(C(C)C)CC2)ccc1Nc1nc(Nc2ccc(F)c(F)c2C(N)=O)c2cc[nH]c2n1 | 0.708 days | 1.3 nM |  | 
COc1cc(N2CCN(C(C)C)CC2)ccc1Nc1nc(Nc2ccc3ncccc3c2)c2cc[nH]c2n1 |  | 13 nM | 773 nM | 
COc1cc2c(cc1Nc1nc(Nc3ccsc3C(N)=O)c3cc[nH]c3n1)N(C(=O)CN(C)C)CC2 | 10.4 days |  |  | IC50 [4]: 0.4 nM
CCCN1CCC(c2ccc(Nc3nc(Nc4ccsc4C(N)=O)c4cc[nH]c4n3)c(OC)c2)CC1 | 38.3 days | 1.3 nM | 52 nM | 
COc1cc(N2CCN(C(C)C)CC2)ccc1Nc1nc(Nc2cccc(F)c2C(N)=O)c2cc[nH]c2n1 | 0.708 days | 2 nM | 117 nM | clearance [5]: 51 mL/min/kg; bioavailability [6]: 65%; AUC [7]: 156 ng·h/mL/mg/kg
COc1cc2c(cc1Nc1nc(Nc3cccc4c3C(=O)NC4)c3cc[nH]c3n1)N(C(=O)CN(C)C)CC2 | > 41.7 days | 0.8 nM | 16 nM | IC50 [8]: 0.8 nM; IC50 [9]: 2.5 nM
COc1cc2c(cc1Nc1nc(Nc3ccoc3C(N)=O)c3cc[nH]c3n1)N(C(=O)CN(C)C)CCC2 | > 41.7 days | 0.3 nM | 9 nM | 
COc1cc(N2CCN(C(C)C)CC2)ccc1Nc1nc2[nH]ccc2c2nc3cccc(F)c3c(=O)n12 |  | 7.9 nM | 30000 nM | clearance [10]: 47 mL/min/kg; bioavailability [11]: 81%; AUC [12]: 18 ng·h/mL/mg/kg
COc1cc(N2CCN(C(C)C)CC2)ccc1Nc1nc(Nc2cc(F)cc(F)c2C(N)=O)c2cc[nH]c2n1 | 1.62 days | 0.8 nM |  | 
COc1cc(N2CCN(C(C)C)CC2)ccc1Nc1nc(Nc2cccc(F)c2C(=O)O)c2cc[nH]c2n1 [GSK-1819799A] |  |  |  | clearance [10]: > 200 mL/min/kg; bioavailability [11]: 0%; AUC [12]: 0 ng·h/mL/mg/kg
COc1cc(N2CCN(CC(C)C)CC2)ccc1Nc1nc(Nc2ccccc2C#N)c2cc[nH]c2n1 |  | 79 nM | 2740 nM | 
COc1cc(N2CCN(C(C)C)CC2)ccc1Nc1nc(Nc2ccccc2OC)c2cc[nH]c2n1 |  | 32 nM | 982 nM | 
COc1cc(N2CCN(C(C)C)CC2)ccc1Nc1nc(Nc2ccsc2C(N)=O)c2cc[nH]c2n1 | > 41.7 days | 1.6 nM | 106 nM | 
COc1cc2c(cc1Nc1nc(Nc3ccsc3C(N)=O)c3cc[nH]c3n1)N(C(=O)CN(C)C)CCC2(C)C [GSK-2163632A] | 30 days | 0.2 nM | < 2 nM | 
COc1cc(N2CCN(C(C)C)CC2)ccc1Nc1nc(Nc2ccccc2-n2cccn2)c2cc[nH]c2n1 |  | 25 nM | 654 nM | 
COc1cc2c(cc1Nc1nc(Nc3cccc(F)c3C(N)=O)c3cc[nH]c3n1)N(C(=O)CN(C)C)CC2 | 0.0833 days | 1 nM | 54 nM | 
COc1cc(N2CCN(C(C)C)CC2)ccc1Nc1nc(Nc2cccc3ncccc23)c2cc[nH]c2n1 [GSK-1511931A] |  | 250 nM | 2530 nM | 
COc1cc2c(cc1Nc1nc(N3CCc4ccccc43)c3cc[nH]c3n1)N(C(=O)CN(C)C)CCC2 | > 41.7 days | 0.5 nM | 15 nM | 
CNC(=O)c1cscc1Nc1nc(Nc2cc3c(cc2OC)CCN3C(=O)CN(C)C)nc2[nH]ccc12 | 16.2 days | 2 nM | 25 nM | 
COc1cc(N2CCN(C(C)C)CC2)ccc1Nc1nc(Nc2ccc(F)cc2C(N)=O)c2cc[nH]c2n1 [GSK-1220512A] | 0.0833 days | 0.9 nM |  | 
COc1cc(N2CCN(C(C)C)CC2)ccc1Nc1nc(Nc2cc(F)ccc2C(N)=O)c2cc[nH]c2n1 | 0.167 days | 0.7 nM |  | 
COc1cc2c(cc1Nc1nc(Nc3ccsc3C(N)=O)c3cc[nH]c3n1)N(C(=O)CN(C)C)CCC2 [GSK-2110236A] | 34.6 days | < 0.2 nM | 6 nM | 
COc1cc(N2CCN(C(C)C)CC2)ccc1Nc1nc(Nc2cccc3c2NCC3)c2cc[nH]c2n1 |  | 400 nM | 1690 nM | 
COc1cc2c(cc1Nc1nc(Nc3cccnc3C(N)=O)c3cc[nH]c3n1)N(C(=O)CN(C)C)CCC2 | 1.12 days | 0.5 nM | 18 nM | 
COc1cc2c(cc1Nc1nc(Nc3ccoc3C(N)=O)c3cc[nH]c3n1)N(C(=O)CN(C)C)CC2 | > 41.7 days |  |  | 
COc1cc2c(cc1Nc1nc(Nc3cccnc3C(N)=O)c3cc[nH]c3n1)N(C(=O)CN(C)C)CC2 | 0.625 days | 0.7 nM | 38 nM | 
COc1cc(N2CCN(C(C)C)CC2)ccc1Nc1nc(-n2[nH]c(=O)c3ccccc32)c2cc[nH]c2n1 |  | 6 nM | 546 nM | 
COc1cc2c(cc1Nc1nc(N3CCc4ccccc43)c3cc[nH]c3n1)N(C(=O)CN(C)C)CC2 [GSK-2186269A] | > 41.7 days | 0.8 nM | 160 nM | 
COc1cc(N2CCC(N3CCN(S(C)(=O)=O)CC3)CC2)ccc1Nc1nc(Nc2ccsc2C(N)=O)c2cc[nH]c2n1 | 17.9 days | 5 nM | 92 nM | 
COc1cc(N2CCN(C(C)C)CC2)ccc1Nc1nc(N2CCc3ccccc32)c2cc[nH]c2n1 |  | 10 nM | 1770 nM | 
